≈ marks a conversion by molar mass, not a printed value.
Columns and labels:
Streptococcus agalactiae = experiment: MIC against clinically isolated strains, Streptococcus agalactiae; type: cell-based; details: Streptococcus agalactiae (17 strains)
Description: Standard strains, including Staphylococcus aureus ATCC29213, S. pneumoniae ATCC49619, E. faecalis ATCC29212, are all available from the American Type Culture Collection.
Clinically isolated strains: There are total 120 clinical strains of gram-positive bacterium including: 37 strains of Staphylococcus aureus (consisting of 14 strains of methicillin sensitive Staphylococcus aureus MSSA and 23 strains of methicillin resistant Staphylococcus aureus MRSA); 27 strains of Streptococcus pneumoniae (consisting of 13 strains of penicillin sensitive Streptococcus pneumoniae PSSP and 14 strains of penicillin insensitive or resistant Streptococcus pneumoniae PISP+PRSP); 15 strains of Streptococcus pyogenes; 17 strains of Streptococcus agalactiae; 24 stains of Enterococcus faecium (consisting of 12 strains of vancomycin sensitive Enterococcus faecium and 12 strains of vancomycin resistant Enterococcus faecium).
(2) Tested compounds: Compound 13f was prepared by the methods above, with potency of over 98%; Linezolid was purchased from Pfizer, with potency of 100%.
Staphylococcus and Enterococcus faecium were incubated in Mueller-Hinton agar medium (MHA medium) at 35° C. for 16-20 h; S. pneumoniae was incubated in Cation-Adjusted Mueller-Hinton Broth medium (CAMHB medium) supplemented with 2.5-5.5% (v/v) lysed horse blood (LHB) at 35° C. for 20-24 h; and Streptococcus were incubated in sheep blood-containing medium (prepared by addition of 5% defibrinated sheep blood into MHA media) at 35° C. for 20-24 h in 5% CO2 environment (CO2 incubator). Before test of the compound activity, each stock of the bacteria strains was activated and colonized in the following manner: the stock was transferred and cultured in a liquid culture medium, the culture liquid was smeared onto an agar plate with an inoculating loop to obtain bacterial colonies on the plate after incubation, and then a colony of the bacteria was chose to be suspended into the liquid culture medium for performing the test of compound activity. As a result, fresh bacteria cells were applied to the test. The standard strains were used as sensitive bacterium to control the quality of the experiments, and a plate or tube containing no antibacterial compounds is used as a blank control for the growth of test strains.
The minimal inhibitory concentration (MIC) of the test compounds on the strains of Streptococcus pneumoniae was determined by a standard broth macrodilution method, while the MIC of the test compounds on the other bacteria stains was determined by standard agar double dilution methods. The concentration of the test compounds was in the range of 32 mg/L-0.016 mg/L. The bacterial suspensions to be tested were inoculated by a multipoint inoculator, and the inoculation amount at each point is 10^4 CFU. The MIC of the test compound to each strain of the bacteria was determined.

ATCC 25923 = experiment: Mouse model of systemic infection; type: in vivo, C57 mice; details: intravenous
Description: Animal model: SPF grade C57 mice, 4-6 weeks age, weight 18-22 g, ten mice per group;
Infectious strain: ATCC 25923, grown in a MHB medium to a period of logarithmic growth;
Test compounds: Compound 13f prepared according to the methods above, and Linezolid as a control, purchased from Airsea Pharmaceutical Ltd., (Taizhou, ZheJiang Province, China;
Formulation and dosage of the test compounds: To evaluate the treating effect of compound 13f, an animal model of intraperitoneal infection by bacteria was established and grouped into 13f group and Linezolid group. The same dosage of the compound 13f and Linezolid was administrated to the groups, respectively.
The minimum lethal dose (MLD) was determined as follows: Bacterial stock liquid cultured overnight was adjusted to 0.5 McFarland with saline solution, and subsequently subjected to a proper serial dilution. 3-5 dilutions with different concentrations of the bacteria were used to infect mice (10 mice per concentration), respectively, by intraperitoneal injection with a volume of 0.5 mL of the dilution. The minimum concentration at which 100% mice were dead was regarded as MLD. For purpose of ensuring experimental reliability, two control groups (MLD control group and 1/10MLD control group) were used in this experiment. The mortality of the MLD control group was 100%, while the mortality of the 1/10OMLD control group was 30%. […] To enhance virulence of the infectious bacteria, 15% yeast was added into the bacterial liquid for infection.
Experimental animal and grouping: SPF grade C57 mice (purchased from Experiment Animal Center, West China Hospital of Sichuan University), 4-6 weeks old, weighting 18-22 g, were randomly divided into groups, including model group, and treating groups consisting of group administrated with compound 13f at 5 mg/kg, group administrated with compound 13f at 10 mg/kg, group administrated with Linezolid at 5 mg/kg and group administrated with Linezolid at 10 mg/kg, with ten mice per group.
1) Based on the MLD result from the preliminary experiment, the mice were infected by intraperitoneal injection with a saline suspension of ATCC 25923, containing 15% yeast. Injection dosage of the bacteria was 0.2 OD/mice.
2) Administration time and frequency: The above mentioned compounds (compound 13f and Linezolid) were administrated to the mice of the treating groups 1 hour before and 4 hour after the infection, respectively. Meanwhile, the mice of the model group received only solvents in the same volume as that of the compound solution administrated in the treating group. The treating groups includes compound 13f group at 10 mg/kg, compound 13f group at 5 mg/kg, Linezolid group at 10 mg/kg and Linezolid group at 5 mg/kg.
3) Administration route: intravenous injection;
4) Dissolving compounds: The compounds were dissolved with 30% water solution of hydroxypropyl-β-cyclodextrin;
5) Efficacy observation: After infection and administration, the appetites, activities, symptoms and signs of the test mice were observed regularly. The survival rate was monitored every 4 h. The observation lasted for 7 days. During this period of observation, dissection of dying mice was immediately carried out after their death, and a histopathological examination was conducted, if necessary.
6) Evaluation: Main indexes include survival time, survival rate, and CFU count of organ and blood.

[1] = 10 mg/kg, 1 hour before and 4 hour after infection, 7 days observation

Compound	MIC50 (Streptococcus agalactiae) [ng/mL]	MIC90 (Streptococcus agalactiae) [ng/mL]	MICmode (Streptococcus agalactiae) [µg/L]	MICrange (Streptococcus agalactiae) [µg/L]	time after infection at which death of mice was observed (ATCC 25923; 5 mg/kg) [h]	mortality (ATCC 25923; 5 mg/kg, in 24 h) [%]	mortality (ATCC 25923; 5 mg/kg, in 48 h) [%]	mortality (ATCC 25923; 5 mg/kg, in 72 h) [%]	protection rate (ATCC 25923; [1]) [%]	in vivo treatment effect and protection effect compared with Linezolid (ATCC 25923; 5 mg/kg)	therapeutic effect compared with linezolid (ATCC 25923; 10 mg/kg)	survival rate (ATCC 25923; [1]) [%]
CC(=O)NC[C@H]1CN(c2ccc(N3CCOCC3)c(F)c2)C(=O)O1 [Linezolid, reference compound]	1 (≈ 2.96 nM)	1 (≈ 2.96 nM)	1	0.5 to 1	5	50	70	100	100	–	–	–
CC(=O)NC[C@H]1CN(c2ccc(-n3cc(-c4ccccn4)cn3)c(F)c2)C(=O)O1 [Compound 13f, (S)-N-((3-(3-fluoro-4-(4-(pyridin-2-yl)-1H-pyrazol-1-yl)phenyl)-2-oxooxazolidin-5-yl)methyl)acetamide]	–	–	1	0.5 to 1	5	20	–	–	–	better in vivo treatment effect and protection effect	same therapeutic effect as linezolid	100

Source: patent publication US8946436B2, “Oxazolidinone compounds and their uses in preparation of antibiotics” (Sichuan Gooddoctor Pharmaceutical Group Co., Ltd., priority 2011, dated 2015)
